Laboratory results: patent US7282518B2, “Benzimidazole compounds for modulating IgE and inhibiting cellular proliferation” (Avanir Pharmaceuticals, priority 2001, dated 2007)

Experiments:
[1] = system: EGF-responsive cell lines; assay: Proliferation of EGF-responsive (ER-negative/EGFR-positive) breast cancer cell lines; type: cell-based; settings: in vitro
Protocol: (§1) A variety of experiments were performed in an effort to determine the effect of the benzimidazole compounds on cellular proliferation. These experiments ultimately measured ^3H-thymidine incorporation into proliferating cell DNA. The specific procedure varied with the cells and the stimuli. Cells derived from mouse spleen were cultured at 3 million per ml; cell lines were seeded at 0.1 to 1 million per ml. Splenic B cells were isolated by T cell depletion and stimulated with phorbol myristate acetate (PMA) (10 ng/ml) plus ionomycin (100 nM), or IL-4 (10 ng/ml) plus anti-CD40 Ab (100 ng/ml). T cells were depleted prior to culture by incubating spleen cells first with a cocktail of anti-Thyl ascites (10%), anti-CD4 Ab (0.5 μg/ml) and anti-CD8 Ab (0.5 μg/ml), followed by guinea pig complement (adsorbed). Cell lines were unstimulated or stimulated with Human Epidermal Growth Factor (EGF) (100 ng/ml). All cells were cultured in 96-well plates for 2–3 days and pulsed for 6 to 14 hours with 50 μl of 3H-thymidine (50 μCi/ml). A similar approach was used to establish selectivity of the anti-proliferative activity by testing a battery of tumor lines derived from a variety of tissues, mostly human in origin. An attempt was made to generate proliferation data from at least 2 cell lines from each tissue selected. […]

Splenic B cells = assay: Spleen cell / splenic B cell proliferation, 3H-thymidine incorporation; type: cell-based, mouse
Protocol: (§2) Spleen cell cultures were established from naive BALB/c mice and incubated for 4 days in the presence of stimulus and drug. Cultures were pulsed for 4 hours with 3H-thymidine and harvested. A variety of experiments were performed in an effort to determine the effect of the benzimidazole compounds on cellular proliferation. These experiments ultimately measured ^3H-thymidine incorporation into proliferating cell DNA. The specific procedure varied with the cells and the stimuli. Cells derived from mouse spleen were cultured at 3 million per ml; cell lines were seeded at 0.1 to 1 million per ml. Splenic B cells were isolated by T cell depletion and stimulated with phorbol myristate acetate (PMA) (10 ng/ml) plus ionomycin (100 nM), or IL-4 (10 ng/ml) plus anti-CD40 Ab (100 ng/ml). T cells were depleted prior to culture by incubating spleen cells first with a cocktail of anti-Thyl ascites (10%), anti-CD4 Ab (0.5 μg/ml) and anti-CD8 Ab (0.5 μg/ml), followed by guinea pig complement (adsorbed). Cell lines were unstimulated or stimulated with Human Epidermal Growth Factor (EGF) (100 ng/ml). All cells were cultured in 96-well plates for 2–3 days and pulsed for 6 to 14 hours with 50 μl of 3H-thymidine (50 μCi/ml).

ER-positive cell lines = assay: Proliferation of ER-positive breast cancer cell lines; type: cell-based; settings: in vitro
Protocol: as §1

IgE responses = assay: In vitro IgE responses to IL-4/anti-CD40 Ab; type: cell-based
[2] = system: murine M12.4.1 lymphoma cells; assay: M12.4.1 lymphoma cell proliferation, 3H-thymidine incorporation; type: cell-based
Protocol: as §2, with “A” for “Spleen cell cultures were established from naive BALB/c mice and incubated for 4 days in the presence of stimulus and drug. Cultures were pulsed for 4 hours with 3H-thymidine and harvested. A”, “μCi/ml). In tumor cells, the results with splenic lymphocytes led to a further analysis of cellular proliferation by measuring the growth of tumor cells in the presence of these drugs. The initial analysis was performed with murine M12.4.1 lymphoma cells, either un-stimulated or stimulated with IL-4/anti-CD40 Ab. […]” for “μCi/ml).”

[3] = system: tumor lines derived from a variety of tissues; assay: Proliferation of a battery of tumor lines from a variety of tissues; type: cell-based, mostly human; settings: in vitro
Protocol: as §1

cytokine release = assay: ConA-stimulated cytokine release; type: cell-based

Structure (SMILES): O=C(Nc1ccccn1)c1ccc2[nH]c(-c3ccc(NC(=O)C45C[C@H]6C[C@@H](C4)C[C@@H](C5)C6)cc3)nc2c1 [Compound I.82]
- proliferation of all EGF-responsive cell lines [1]: potently inhibited
- anti-proliferative activity to T and B lymphocytes exposed to a variety of immunogenic stimuli (Splenic B cells; in vitro): highly potent
- spleen cell proliferation responses (FIG. 1) (Splenic B cells; naive BALB/c mice, 4 days with stimulus and drug, 4 hours 3H-thymidine pulse): suppression of spleen cell proliferation responses
- B cell proliferation response to IL-4/anti-CD40 Ab (Splenic B cells; spleen cells, IL-4 (10 ng/ml) plus anti-CD40 Ab (100 ng/ml)): suppressed
- B cell proliferation response to PMA/ionomycin (Splenic B cells; spleen cells, PMA (10 ng/ml) plus ionomycin (100 nM)): suppressed
- number of ER-positive cell lines potently inhibited (ER-positive cell lines): 2 of the 5
- in vitro IgE responses to IL-4/anti-CD40 Ab (IgE responses): suppressed in vitro IgE responses
- proliferation of M12.4.1 cells, potency ([2]; cultured with IL-4/anti-CD40 Ab): increased
- proliferation of M12.4.1 cells ([2]; un-stimulated): suppressed the proliferation of M12.4.1 cells but with lower potency
- sensitivity of tumor cell lines (proliferation) [3]: a number of tumor cell lines are sensitive
- ConA-stimulated cytokine release (cytokine release): inhibition
